{
  "source": "patent US5476933A",
  "about": "“Azepine synthesis via a diels-alder reaction” (priority 1994, dated 1995)",
  "origin": "cited, not measured here",
  "key": {"[1]": {"tested_on": "rodents", "conditions": "literature; cited from earlier work"}, "[2]": {"molecular_target": "PCP receptor", "conditions": "Wong et al. 1986; cited from earlier work"}},
  "data": [
    {"compound": "C[C@]12N[C@H](Cc3ccccc31)c1ccccc12", "note": "[MK-801]", "values": [
      {"measurement": "PCP-like behavioral effects, in words", "setting": "[1]", "value": "adverse PCP-like behavioral side effects"},
      {"measurement": "Kd", "setting": "[2]", "value": "~3", "unit": "nM"}
    ]}
  ]
}
